{"source": "patent US20130156845A1", "about": "“LIPID FORMULATED SINGLE STRANDED RNA” (ALNYLAM PHARMACEUTICALS, INC., priority 2010, published 2013)", "key": {"[1]": {"test": "ssRNA stability in hepatocyte cell homogenate assay (Example 65)", "type": "in vitro ADME", "conditions": "mouse hepatocyte homogenate, LC-MS; Test 1", "protocol": "Hepatocytes were harvested from bal/c mice in ice-cold hepatocyte wash media (William E Media) with fetal bovine serum, sedimented by centrifugation at 1000 g for 8 minutes and then washed with hepatocyte wash media. Hepatocytes were homogenized with RIPA buffer (50 mM Tris pH 7.5, 10 mM MgCl2, 150 mM NaCl, 0.5% NP-40 alternative, one tablet of Roche protease inhibitor #11836170001), and centrifuged at 14000 g for 15 minutes at 4° C. and the supernatant was removed and stored in ice. Protein concentration (BSA mg/mL) was determined with Bradford assay and adjusted to a final protein concentration of 2 mg/mL by addition of Ripa buffer volume or cell homogenate volume.\n[…] were homogenized in a homogenation buffer (20 mM Tris, pH 8, 20 mM EDTA and 0.1 M NaCl in 0.5% NP-40) at time points 0, 5, 10, 20, 30, 40 and 60 minutes (Exception: 06/408877 at time points 0, 15, 30, 60, 120 and 240 mins, 06/409044, at time points 0, 0.5, 1, 2, 4, 8, and 18 hours). An internal standard (18/355868, a 27-mer, 2′-O-methoxyethyl-modified phosphorothioate oligonucleotide, or 19/116847, a 5-10-5 gappmer, 2′-O-methoxyethyl-modified phosphorothioate oligonucleotide) with concentration at 20 ug/g was added prior to extraction. Tissue samples were extracted with 70 μL of NH4OH and 240 μL of phenol/chloroform/isoamyl alcohol (25:24:1). The supernatant was removed after centrifugation at 14000 rpm for 2 min. The remaining extractant was vortexed with an additional […] of water and the aqueous layer was removed and combined with the supernatant after centrifugation at 14000 rpm for 2 minutes.\nTriethylammonium acetate solution at 1M ([…]) was added to the supernatant. The aqueous layer of the mixture was loaded onto the pre-conditioned Biotage™ Phenyl Solid Phase Extraction Plate (SPE plate) after centrifugation at 9000 rpm for 20 minutes. The SPE plate was washed several times with water. The sample was then eluted with 1.5 mL of 1% TEA in 90% MeOH and filtered through the Protein Precipitation Plate (Phenomenex™). The elutent was evaporated to dryness and diluted to 200 μL with 50% quenching buffer (8 M urea, 50 mM EDTA) and water before sample injection.\nAn Agilent 1100 Series LC/MSD system was connected in-line to a mass spectrometry. Mass spectrometer was operated in the electrospray negative ionization mode. The nebulizer nitrogen gas was set at […] and the drying nitrogen gas was set at 12 L/min. The drying temperature was 325° C. Samples (25 μL/well) were introduced via an auto sampler and reversed-phase chromatography was carried out with an XBridge OST C18 2.5 μm 2.1 mm×50 mm HPLC column using a flow rate of 300 μL/min at 55° C. The ion pair buffers consisted of A: 5 mM tributylammonium acetate (TBAA) in 20% acetonitrile and B: […] TBAA in 90% acetonitrile and the loading buffer was 25 mM TBAA in 25% Acetonitrile. Separation was performed on a 30% to 70% B in 9 min and then 80% B in 11 min gradient.\nQuantitative analysis of oligonucleotide and internal standard by extracted ion chromatograms of the most abundant ions was performed using MSD ChemStation software. The results are expressed as half-time (T1/2) in the table below."}, "human PTEN": {"tested_on": "human PTEN", "test": "PTEN expression in HeLa cells, ssRNAs vs siRNAs (Example 62)", "type": "cell-based", "summary_of_the_method": "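HeLa cells treated with antisense strands either as single-stranded RNAs or duplexed with a common sense strand. PTEN mRNA levels normalized; IC50 from linear regression of normalized mRNA against log concentration.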"}}, "note": "Read-outs that look alike come from different tables or passages of the source. e = 2'-O-(2-methoxyethyl) (MOE); {P} = phosphate; f = 2'-fluoro", "data": [{"substance": "P-UfUfGfUfCfUfCfUfGfGfUfCfCfUfUfAfCfUfUfAeAe (antisense UUGUCUCUGGUCCUUACUUAA; sugars from the 5' end f19 e2, 5' {P}, backbone not given here) [ISIS 404320, modified ssRNA targeting PTEN]", "values": [{"measurement": "T1/2 Test 1", "setting": "[1]", "value": 4, "unit": "min"}, {"measurement": "EC50", "setting": "human PTEN; antisense strand duplexed with sense strand ISIS 341401, PTEN mRNA, read-out: EC50 (nM) siRNA", "value": 0.5, "unit": "nM"}, {"measurement": "EC50", "setting": "human PTEN; single stranded antisense compound, PTEN mRNA, read-out: EC50 (nM) ssRNA", "value": 5, "unit": "nM"}]}]}
